What all share (format): in vivo
One test concerns Lucilia cuprina larvae. Description: Lucilia cuprina test (LUCICU). The settings on record: treated horsemeat. On the procedure:
Lucilia cuprina Test (LUCICU)
Description for Examples A and B
(§1) • Solvent: Dimethyl sulphoxide
To produce a suitable preparation of active compound, 1 part by weight of active compound is mixed with the stated amount of water and the concentrate is diluted with water to the desired concentration.
Containers containing horsemeat treated with the active compound preparation of the desired concentration are populated with Lucilia cuprina larvae.
After the desired period of time, the kill in % is determined. 100% means that all larvae have been killed; 0% means that none of the larvae have been killed.
(§2) In this test, for example, the following compounds of the preparation examples show good activity: see table

The subject of test [1] is larvae of the mustard beetle (Phaedon cochleariae). Description: Phaedon test (PHAECO spray treatment). To be noted: 4 ppm active compound, sprayed Chinese cabbage discs. On the procedure: Phaedon Test (PHAECO Spray Treatment)
• Solvents: 78 parts by weight of acetone • 1.5 parts by weight of dimethylformamide • Emulsifier: 0.5 part by weight of alkylaryl polyglyycol ether
After the desired period of time, the effect in % is determined. 100% means that all beetle larvae have been killed; 0% means that none of the beetle larvae have been killed.

In a further test the test system is adult Musca domestica. The experiment in a line: Musca domestica test (MUSCDO). The settings on record: Example C, treated sponge. On the procedure:
Musca domestica Test (MUSCDO)
as §1
To produce a suitable preparation of active compound, 1 part by weight of active compound is mixed with the stated amount of water, and the concentrate is diluted with water to the desired concentration.
Containers containing a sponge treated with the preparation of active compound of the desired concentration are populated with adult Musca domestica.
After the desired period of time, the kill in % is determined. 100% means that all flies have been killed; 0% means that none of the flies have been killed.
as §2

The subject of test [2] is greenhouse red spider mite (Tetranychus urticae). Description: Tetranychus test, OP-resistant (TETRUR spray treatment). To be noted: sprayed bean leaf discs. On the procedure:
Tetranychus Test, OP-resistant (TETRUR Spray Treatment)
• Solvents: 78 parts by weight of acetone • 1.5 parts by weight of dimethylformamide • Emulsifier: 0.5 part by weight of alkylaryl polyglycol ether
(§3) To produce a suitable preparation of active compound, 1 part by weight of active compound is mixed with the stated amounts of solvents and emulsifier, and the concentrate is diluted with emulsifier-containing water to the desired concentration.
Discs of bean leaves (Phaseolus vulgaris) heavily infested by all stages of the greenhouse red spider mite (Tetranychus urticae) are sprayed with a preparation of active compound of the desired concentration.
After the desired period of time, the effect in % is determined 100% means that all spider mites have been killed; 0% means that none of the spider mites have been killed.
as §2

The test system of test [3] is eggs, larvae and pupae of the whitefly (Bemisia tabaci). The experiment in a line: Bemisia tabaci test, normally sensitive strains (BEMITA). To be noted: Example E; 0.8 ppm active compound; sprayed cotton plants. On the procedure: Bemisia tabaci Test, Normally Sensitive Strains, (BEMITA)
• Solvent: 7 parts by weight of dimethylformamide • Emulsifier: 10 parts by weight of alkylaryl polyglycol ether
as §3
Cotton plants (Gossypium hirsutum) infected by eggs, larvae and pupae of the whitefly (Bemisia tabaci) are treated by being sprayed with the preparation of active compound at the desired concentration.
After the desired period of time, the kill in % is determined 100% means that all animals have been killed; 0% means that none of the animals have been killed.
as §2

The subject of test [4] is caterpillars of the army worm (Spodoptera frugiperda). The experiment in a line: Spodoptera frugiperda test (SPODFR spray treatment). The settings on record: Example I; 4 ppm active compound; sprayed maize leaf discs. On the procedure:
Spodoptera frugiperda Test (SPODFR Spray Treatment)
• Solvents: 78.0 parts by weight of acetone • 1.5 parts by weight of dimethylformamide • Emulsifier: 0.5 part by weight of alkylaryl polyglyycol ether
After the desired period of time, the effect in % is determined. 100% means that all caterpillars have been killed; 0% means that none of the caterpillars have been killed.

Test [5] has as its system unfed adult fleas (Ctenocephalides felis). The experiment in a line: Ctenocephalides felis; oral (CTECFE). To be noted: Example J; 4 ppm active compound in citrated cattle blood, oral uptake. On the procedure:
Ctenocephalides felis; Oral (CTECFE)
as §1
To produce a suitable preparation of active compound, 1 part by weight of active compound is mixed with the stated amount of solvent. Part of the concentrate is diluted with citrated cattle blood, and the desired concentration is prepared.
20 unfed adult fleas (Ctenocephalides felis) are placed into a chamber whose top and bottom ends are closed with gauze. A metal cylinder whose bottom end is closed with parafilm is placed onto the chamber. The cylinder contains the blood/active compound preparation, which can be taken up by the fleas through the parafilm membrane. The blood is warmed to 37° C., but the flea chamber is at room temperature.
After the desired period of time, the kill in % is determined. 100% means that all fleas have been killed; 0% means that none of the fleas have been killed.
as §2

Setting [6] is: Example A, 0.8 ppm active compound.
Where [7] appears, read: Example F, 0.00128 ppm active compound.
[8] abbreviates: Example H, 0.032 ppm active compound.

The record followed here is US8183351B2, “Avermectin derivatives” (Bayer Cropscience AG, priority 2006, dated 2012).

“4′-O-acetyl-4′-O-de(2,6-dideoxy-3-O-methyl-α-L-arabino-hexopyrano-syl)-5-O-demethyl-avermectin A1a [reference compound]”: the “Kill rate in % after 2 days” value with Lucilia cuprina larvae (setting [6]) came out at 30%; in the test with Lucilia cuprina larvae (Example B, 0.16 ppm active compound), 0%; with adult Musca domestica (0.8 ppm active compound), 0%; in the test with adult Musca domestica (100 ppm active compound) it was 60%. Moreover, the “Kill rate in % after 7 days” value in test [1] (Example D) and in test [3] was 0% throughout. The “Kill rate in % after 5 days” value in test [2] (setting [7]) came out at 0%.

Consider `COC1CC(OC2C(C)=CCC3CC(CC4(CCC(C)C(C(C)C)O4)O3)OC(=O)C3C=C(C)C(O)C4OCC(=CC=CC2C)C34O)OC(C)C1OC(C)=O` [4′-O-acetyl-4′-O-de(2,6-dideoxy-3-O-methyl-α-L-arabino-hexopyranosyl)-5-O-demethyl-25-de(1-methylpropyl)-22,23-dihydro-25-(1-methylethyl)-avermectin A1a, reference compound], for which the “Kill rate in % after 5 days” value in test [4] and in test [2] (setting [8]) was 0% throughout. For the same compound, the “Kill rate in % after 7 days” value in test [1] (Example G) is listed as 0%. For the same compound, the “Kill rate in % after 2 days” value in test [5] turned out to be 20%.

As for `CC[C@H](C)[C@H]1OC2(C=C[C@@H]1C)C[C@@H]1C[C@@H](C/C=C(\C)[C@@H](OC3CC(OC)C(OC(=O)c4ccccc4)C(C)O3)[C@@H](C)/C=C/C=C3\CO[C@@H]4[C@H](O)C(C)=CC(C(=O)O1)[C@]34O)O2` (some centres unmarked) [Example 2], in test [2] (setting [7]), the “Kill rate in % after 5 days” value stood at 80%.

Consider `CC[C@H](C)[C@H]1OC2(C=C[C@@H]1C)C[C@@H]1C[C@@H](C/C=C(\C)[C@@H](OC3CC(OC)C(OC(=O)Cc4cccs4)C(C)O3)[C@@H](C)/C=C/C=C3\CO[C@@H]4[C@H](O)C(C)=CC(C(=O)O1)[C@]34O)O2` (some centres unmarked) [Example 13], for which the “Kill rate in % after 2 days” value in the test on adult Musca domestica (0.8 ppm active compound) is recorded as 50%.

With `CC[C@H](C)[C@H]1OC2(C=C[C@@H]1C)C[C@@H]1C[C@@H](C/C=C(\C)[C@@H](OC3CC(OC)C(OC(=O)C4(C)COCOC4)C(C)O3)[C@@H](C)/C=C/C=C3\CO[C@@H]4[C@H](O)C(C)=CC(C(=O)O1)[C@]34O)O2` (some centres unmarked) [Example 14], in the test with Lucilia cuprina larvae (setting [6]), the “Kill rate in % after 2 days” value is on record as 100%. For the same compound, the “Kill rate in % after 7 days” value in test [3] is on record as 80%.

Regarding `CC[C@H](C)[C@H]1OC2(CC[C@@H]1C)C[C@@H]1C[C@@H](C/C=C(\C)[C@@H](OC3CC(OC)C(OC(=O)C(C)(C)n4cncn4)C(C)O3)[C@@H](C)/C=C/C=C3\CO[C@@H]4[C@H](O)C(C)=CC(C(=O)O1)[C@]34O)O2` (some centres unmarked) [Example 23], the “Kill rate in % after 7 days” value in test [1] (Example G) is 100%. The “Kill rate in % after 5 days” value in test [2] (setting [8]) stood at 70%.

With `CC[C@H](C)[C@H]1OC2(C=C[C@@H]1C)C[C@@H]1C[C@@H](C/C=C(\C)[C@@H](OC3CC(OC)C(OC(=O)C(C)n4cccn4)C(C)O3)[C@@H](C)/C=C/C=C3\CO[C@@H]4[C@H](O)C(C)=CC(C(=O)O1)[C@]34O)O2` (some centres unmarked) [Example 48], the “Kill rate in % after 2 days” value in the test with Lucilia cuprina larvae (setting [6]) and with adult Musca domestica (100 ppm active compound) was 100% throughout. Besides, in test [4], the “Kill rate in % after 5 days” value was determined as 100%. The “Kill rate in % after 7 days” value in test [1] (Example G) is recorded as 100%.

Regarding `CC[C@H](C)[C@H]1OC2(C=C[C@@H]1C)C[C@@H]1C[C@@H](C/C=C(\C)[C@@H](OC3CC(OC)C(OC(=O)CN4CCCCC4)C(C)O3)[C@@H](C)/C=C/C=C3\CO[C@@H]4[C@H](O)C(C)=CC(C(=O)O1)[C@]34O)O2` (some centres unmarked) [Example 50], the entries for the “Kill rate in % after 2 days” value (in the test with Lucilia cuprina larvae (setting [6]); in test [5]; with adult Musca domestica (100 ppm active compound)) were 100%, 50% and 90%, respectively. In test [4], the “Kill rate in % after 5 days” value was determined as 100%. Moreover, the “Kill rate in % after 7 days” value in test [1] (Example G) came to 83%.

On to `CC[C@H](C)[C@H]1OC2(C=C[C@@H]1C)C[C@@H]1C[C@@H](C/C=C(\C)[C@@H](OC3CC(OC)C(OC(=O)C(C)N4CCOCC4)C(C)O3)[C@@H](C)/C=C/C=C3\CO[C@@H]4[C@H](O)C(C)=CC(C(=O)O1)[C@]34O)O2` (some centres unmarked) [Example 52, 4′-O-(2-morpholin-4-ylpropanoyl)-avermectin B1 monosaccharide], for which the “Kill rate in % after 2 days” value is 100% in the test with Lucilia cuprina larvae (setting [6]) and 50% in test [5]. In addition, the “Kill rate in % after 5 days” value in test [4] is on record as 100%. The “Kill rate in % after 7 days” value in test [1] (Example G) was 100%.

Consider `CC[C@H](C)[C@H]1OC2(C=C[C@@H]1C)C[C@@H]1C[C@@H](C/C=C(\C)[C@@H](OC3CC(OC)C(OC(=O)CN(C)C(=O)OC(C)(C)C)C(C)O3)[C@@H](C)/C=C/C=C3\CO[C@@H]4[C@H](O)C(C)=CC(C(=O)O1)[C@]34O)O2` (some centres unmarked) [Example 55], for which the “Kill rate in % after 2 days” value with Lucilia cuprina larvae (setting [6]) and with adult Musca domestica (100 ppm active compound) was 90% in each case.

Turning to `CC[C@H](C)[C@H]1OC2(C=C[C@@H]1C)C[C@@H]1C[C@@H](C/C=C(\C)[C@@H](OC3CC(OC)C(OC(=O)CN(C)C)C(C)O3)[C@@H](C)/C=C/C=C3\CO[C@@H]4[C@H](O)C(C)=CC(C(=O)O1)[C@]34O)O2` (some centres unmarked) [Example 57], the “Kill rate in % after 2 days” value in the test on Lucilia cuprina larvae (setting [6]) is on record as 100%; in test [5], 40%; in the test on adult Musca domestica (100 ppm active compound) it was 90%. In test [1] (Example G), the “Kill rate in % after 7 days” value is given as 100%.

Turning to `CC[C@H](C)[C@H]1OC2(C=C[C@@H]1C)C[C@@H]1C[C@@H](C/C=C(\C)[C@@H](OC3CC(OC)C(OC(=O)Cc4nn(C)c(=O)n4C)C(C)O3)[C@@H](C)/C=C/C=C3\CO[C@@H]4[C@H](O)C(C)=CC(C(=O)O1)[C@]34O)O2` (some centres unmarked) [Example 60], the figures for the “Kill rate in % after 2 days” value (in the test on Lucilia cuprina larvae (setting [6]); in test [5]; with adult Musca domestica (100 ppm active compound)) were 90%, 50% and 100%, respectively. Further, the “Kill rate in % after 7 days” value in test [1] (Example G) amounted to 100%.

Take `CCC(C)C1OC2(C=CC1C)CC1CC(CC=C(C)C(OC3CC(OC)C(OC(=O)C4C(C=C(Cl)Cl)C4(C)C)C(C)O3)C(C)C=CC=C3COC4C(O)C(C)=CC(C(=O)O1)C34O)O2` (centres unmarked) [Example 89]: the “Kill rate in % after 2 days” value in the test on adult Musca domestica (100 ppm active compound) is recorded as 100%.

Take `CCC(C)C1OC2(C=CC1C)CC1CC(CC=C(C)C(OC3CC(OC)C(OC(=O)C(=NOC)c4ccc(Cl)cc4Cl)C(C)O3)C(C)C=CC=C3COC4C(O)C(C)=CC(C(=O)O1)C34O)O2` (centres unmarked) [Example 90]: the “Kill rate in % after 2 days” value in the test on adult Musca domestica (100 ppm active compound) was determined as 100%.

With `CC[C@H](C)[C@H]1OC2(C=C[C@@H]1C)C[C@@H]1C[C@@H](C/C=C(\C)[C@@H](OC3CC(OC)C(OC(=O)Cc4nc(-c5cccs5)sc4C)C(C)O3)[C@@H](C)/C=C/C=C3\CO[C@@H]4[C@H](O)C(C)=CC(C(=O)O1)[C@]34O)O2` (some centres unmarked) [Example 91], the “Kill rate in % after 2 days” value in the test on adult Musca domestica (100 ppm active compound) was 90%.

As for `CC[C@H](C)[C@H]1OC2(C=C[C@@H]1C)C[C@@H]1C[C@@H](C/C=C(\C)[C@@H](OC3CC(OC)C(OC(=O)Cc4ccc(Cl)cc4)C(C)O3)[C@@H](C)/C=C/C=C3\CO[C@@H]4[C@H](O)C(C)=CC(C(=O)O1)[C@]34O)O2` (some centres unmarked) [Example 94], in the test on adult Musca domestica (100 ppm active compound), the “Kill rate in % after 2 days” value is 80%.
